Measured values taken from publication PMC11062922 (Nature Chemical Biology, 2023).
Read-outs that look alike come from different tables or passages of the source.

What was measured:
ACOX1 = molecular target: T1, ACOX1 (Homo sapiens, UniProt Q15067); assay: Kinobeads two-dose competition binding: ACOX1; details: for CATDS: sheet CATDS matrix 2, Gene Name ACOX1;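 for all read-outs here: competition of compounds with immobilized broad-spectrum kinase inhibitor beads in cell lysate at 100 and 1,000 nM, 45 min at 4 °C, bead-bound protein quantified by label-free MS versus DMSO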
T1 construct: endogenous in cells
T1 sequence (Q15067 1-660): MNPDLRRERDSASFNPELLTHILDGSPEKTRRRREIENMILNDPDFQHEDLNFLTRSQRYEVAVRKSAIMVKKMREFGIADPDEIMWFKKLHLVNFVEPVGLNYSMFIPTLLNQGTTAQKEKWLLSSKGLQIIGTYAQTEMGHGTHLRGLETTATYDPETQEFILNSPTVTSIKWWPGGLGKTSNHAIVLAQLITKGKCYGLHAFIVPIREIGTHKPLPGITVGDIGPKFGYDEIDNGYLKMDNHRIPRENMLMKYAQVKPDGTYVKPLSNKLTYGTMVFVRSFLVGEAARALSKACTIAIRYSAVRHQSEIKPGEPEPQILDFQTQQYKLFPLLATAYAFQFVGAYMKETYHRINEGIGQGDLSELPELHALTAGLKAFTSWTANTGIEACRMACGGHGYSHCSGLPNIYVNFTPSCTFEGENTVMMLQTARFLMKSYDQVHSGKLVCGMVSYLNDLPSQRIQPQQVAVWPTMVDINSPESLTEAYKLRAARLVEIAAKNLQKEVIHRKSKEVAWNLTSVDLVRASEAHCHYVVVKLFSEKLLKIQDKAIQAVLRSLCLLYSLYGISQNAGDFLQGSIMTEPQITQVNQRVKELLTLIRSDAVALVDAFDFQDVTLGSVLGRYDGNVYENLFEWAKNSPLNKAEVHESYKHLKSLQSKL

AAK1 = molecular target: T2, AAK1 (Homo sapiens, UniProt Q2M2I8); assay: Kinobeads two-dose competition binding: AAK1; details: for CATDS: sheet CATDS matrix 2, Gene Name AAK1; for potency estimated from few doses: read-out: Kinobeads Drugmatrix - all: apparent Kd, AAK1;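 for all read-outs here: kinobeads competition pulldown from cell lysate, compound preincubated 45 min at 4 °C, bead-bound protein measured by label-free mass spectrometry against DMSO vehicle control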
T2 construct: to maximize the representation of endogenous proteins; endogenous in cells
T2 sequence (Q2M2I8 whole entry): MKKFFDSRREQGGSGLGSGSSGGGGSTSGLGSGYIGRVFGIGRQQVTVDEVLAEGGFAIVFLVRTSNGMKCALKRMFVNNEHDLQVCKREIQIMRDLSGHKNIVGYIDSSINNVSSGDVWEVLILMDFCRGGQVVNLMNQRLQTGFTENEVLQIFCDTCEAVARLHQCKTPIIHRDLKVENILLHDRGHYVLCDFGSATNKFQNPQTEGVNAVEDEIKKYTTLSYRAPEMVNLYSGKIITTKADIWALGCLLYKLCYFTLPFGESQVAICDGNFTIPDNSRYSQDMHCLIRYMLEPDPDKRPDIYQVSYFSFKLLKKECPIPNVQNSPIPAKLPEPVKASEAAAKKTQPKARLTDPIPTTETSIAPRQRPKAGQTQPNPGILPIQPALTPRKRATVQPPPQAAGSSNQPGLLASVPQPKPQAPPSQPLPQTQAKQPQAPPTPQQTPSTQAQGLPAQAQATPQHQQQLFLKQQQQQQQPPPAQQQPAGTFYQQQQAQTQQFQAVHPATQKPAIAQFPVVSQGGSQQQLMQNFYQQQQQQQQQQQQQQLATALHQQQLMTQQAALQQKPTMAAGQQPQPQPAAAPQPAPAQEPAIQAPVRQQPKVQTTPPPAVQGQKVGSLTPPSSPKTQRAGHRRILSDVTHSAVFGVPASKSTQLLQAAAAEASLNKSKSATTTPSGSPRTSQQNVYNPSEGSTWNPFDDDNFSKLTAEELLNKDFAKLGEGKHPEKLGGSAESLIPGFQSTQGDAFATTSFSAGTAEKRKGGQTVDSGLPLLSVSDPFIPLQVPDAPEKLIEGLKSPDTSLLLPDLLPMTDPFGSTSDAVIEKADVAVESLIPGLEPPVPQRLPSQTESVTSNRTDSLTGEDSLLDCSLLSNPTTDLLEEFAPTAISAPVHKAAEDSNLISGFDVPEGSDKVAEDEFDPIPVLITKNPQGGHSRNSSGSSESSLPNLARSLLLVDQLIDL

ABL1 = ABL1 (Homo sapiens, UniProt P00519); assay: Kinobeads two-dose competition binding: ABL1; details: sheet CATDS matrix 2; Gene Name ABL1
Sequence of ABL1 (P00519 28-1130 limits assumed): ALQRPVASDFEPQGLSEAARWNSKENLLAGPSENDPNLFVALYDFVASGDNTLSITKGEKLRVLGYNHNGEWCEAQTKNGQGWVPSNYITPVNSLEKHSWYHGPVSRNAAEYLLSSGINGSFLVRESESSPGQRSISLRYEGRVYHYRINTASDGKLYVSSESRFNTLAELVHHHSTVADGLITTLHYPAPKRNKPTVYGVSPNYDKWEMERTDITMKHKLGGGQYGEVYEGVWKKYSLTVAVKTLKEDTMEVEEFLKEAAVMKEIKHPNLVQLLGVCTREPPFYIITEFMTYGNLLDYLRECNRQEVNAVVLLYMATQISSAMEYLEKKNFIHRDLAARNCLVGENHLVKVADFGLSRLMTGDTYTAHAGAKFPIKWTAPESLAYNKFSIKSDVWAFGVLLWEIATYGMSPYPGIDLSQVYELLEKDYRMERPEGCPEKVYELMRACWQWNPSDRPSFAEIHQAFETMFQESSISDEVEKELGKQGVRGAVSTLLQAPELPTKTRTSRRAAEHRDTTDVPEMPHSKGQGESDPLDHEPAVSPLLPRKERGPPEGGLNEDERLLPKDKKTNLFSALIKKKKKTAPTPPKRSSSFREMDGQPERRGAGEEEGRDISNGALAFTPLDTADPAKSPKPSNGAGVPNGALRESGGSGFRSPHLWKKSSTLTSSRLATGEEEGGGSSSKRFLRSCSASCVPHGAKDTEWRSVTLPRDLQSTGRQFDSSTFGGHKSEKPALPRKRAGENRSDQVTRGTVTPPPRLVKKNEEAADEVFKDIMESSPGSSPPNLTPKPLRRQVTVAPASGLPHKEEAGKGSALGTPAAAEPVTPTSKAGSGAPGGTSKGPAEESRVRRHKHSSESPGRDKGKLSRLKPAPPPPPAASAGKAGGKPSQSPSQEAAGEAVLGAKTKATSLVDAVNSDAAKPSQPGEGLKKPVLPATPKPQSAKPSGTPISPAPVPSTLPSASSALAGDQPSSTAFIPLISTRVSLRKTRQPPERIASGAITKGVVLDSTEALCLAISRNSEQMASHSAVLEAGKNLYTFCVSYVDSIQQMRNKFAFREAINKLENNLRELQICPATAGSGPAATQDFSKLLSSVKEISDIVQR

ABL2 = molecular target: T3, ABL2 (Homo sapiens, UniProt P42684); assay: Kinobeads two-dose competition binding: ABL2; details: sheet CATDS matrix 2; Gene Name ABL2
T3 construct: endogenous in cells
T3 sequence (P42684 whole entry): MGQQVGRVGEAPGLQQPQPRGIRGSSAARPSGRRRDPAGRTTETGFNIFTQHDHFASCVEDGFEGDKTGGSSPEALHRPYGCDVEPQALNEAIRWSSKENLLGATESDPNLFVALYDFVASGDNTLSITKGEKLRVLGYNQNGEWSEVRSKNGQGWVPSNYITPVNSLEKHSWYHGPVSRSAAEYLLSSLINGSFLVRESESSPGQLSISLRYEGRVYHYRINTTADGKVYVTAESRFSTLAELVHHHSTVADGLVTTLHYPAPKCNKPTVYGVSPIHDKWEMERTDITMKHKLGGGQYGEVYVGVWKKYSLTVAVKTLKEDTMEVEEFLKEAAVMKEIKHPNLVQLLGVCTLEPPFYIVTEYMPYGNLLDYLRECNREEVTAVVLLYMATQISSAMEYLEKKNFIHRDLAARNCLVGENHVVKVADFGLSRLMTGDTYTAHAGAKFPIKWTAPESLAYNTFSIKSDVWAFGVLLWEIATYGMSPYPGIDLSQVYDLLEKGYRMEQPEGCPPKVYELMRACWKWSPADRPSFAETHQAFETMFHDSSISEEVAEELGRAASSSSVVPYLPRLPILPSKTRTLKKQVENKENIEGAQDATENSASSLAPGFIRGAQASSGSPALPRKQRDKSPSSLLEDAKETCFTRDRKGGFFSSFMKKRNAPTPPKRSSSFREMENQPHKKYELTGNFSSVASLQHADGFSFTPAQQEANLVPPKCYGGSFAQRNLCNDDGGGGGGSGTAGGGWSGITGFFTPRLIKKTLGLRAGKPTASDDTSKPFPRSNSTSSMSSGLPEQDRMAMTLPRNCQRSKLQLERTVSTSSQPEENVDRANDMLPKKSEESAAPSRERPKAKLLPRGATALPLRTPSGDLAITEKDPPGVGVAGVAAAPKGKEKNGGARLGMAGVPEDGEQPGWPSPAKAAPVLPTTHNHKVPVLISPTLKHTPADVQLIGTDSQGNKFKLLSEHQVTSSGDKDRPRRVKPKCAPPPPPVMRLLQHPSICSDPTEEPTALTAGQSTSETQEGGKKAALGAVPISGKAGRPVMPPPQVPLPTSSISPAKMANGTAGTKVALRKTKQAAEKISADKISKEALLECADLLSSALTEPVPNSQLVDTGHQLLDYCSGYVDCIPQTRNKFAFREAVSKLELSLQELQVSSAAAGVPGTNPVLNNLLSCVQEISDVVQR

ACAD11 = molecular target: T4, ACAD11 (Homo sapiens, UniProt Q709F0); assay: Kinobeads two-dose competition binding: ACAD11; details: sheet CATDS matrix 2; Gene Name ACAD11
T4 construct: endogenous in cells
T4 sequence (Q709F0 1-780): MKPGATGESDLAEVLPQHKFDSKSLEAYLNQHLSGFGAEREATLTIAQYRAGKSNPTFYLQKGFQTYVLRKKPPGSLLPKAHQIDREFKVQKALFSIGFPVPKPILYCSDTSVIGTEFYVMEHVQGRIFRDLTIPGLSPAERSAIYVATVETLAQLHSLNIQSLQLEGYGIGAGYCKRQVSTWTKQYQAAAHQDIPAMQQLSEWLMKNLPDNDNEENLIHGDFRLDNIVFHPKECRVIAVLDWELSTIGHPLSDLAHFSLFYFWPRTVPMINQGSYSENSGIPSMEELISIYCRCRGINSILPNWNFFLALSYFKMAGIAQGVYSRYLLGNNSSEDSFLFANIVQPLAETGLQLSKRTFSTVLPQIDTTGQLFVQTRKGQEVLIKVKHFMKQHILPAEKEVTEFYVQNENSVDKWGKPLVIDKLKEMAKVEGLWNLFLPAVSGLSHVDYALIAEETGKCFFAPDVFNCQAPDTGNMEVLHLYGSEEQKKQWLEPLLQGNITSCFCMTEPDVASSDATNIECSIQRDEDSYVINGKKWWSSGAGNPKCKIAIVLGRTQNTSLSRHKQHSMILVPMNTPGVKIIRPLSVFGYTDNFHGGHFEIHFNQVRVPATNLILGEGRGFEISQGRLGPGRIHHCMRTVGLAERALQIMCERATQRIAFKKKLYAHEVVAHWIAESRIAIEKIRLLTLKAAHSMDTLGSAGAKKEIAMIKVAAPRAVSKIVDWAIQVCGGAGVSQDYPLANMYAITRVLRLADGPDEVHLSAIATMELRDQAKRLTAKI

[1] = sheet "Kinobeads Drugmatrix - all", unit inferred, same values below 1000 recur in sheet "nanomolar"

COc1ccc(Nc2nccc(N3CCC(NC(=O)c4cc5ccccc5s4)C3)n2)cc1 (stereo not drawn) [GSK1379738A]
CATDS (ACOX1): 0
CATDS (AAK1): 0
CATDS (ABL1): 0
CATDS (ABL2): 0
CATDS (ACAD11): 0

COc1cc(Nc2nccc(N3CCC(NC(=O)c4cccc(C#N)c4)C3)n2)cc(OC)c1OC (stereo not drawn) [GSK1379751A]
CATDS (ACOX1): 0
potency estimated from few doses (AAK1; [1]): 786 nM
CATDS (AAK1): 0.2095
CATDS (ABL1): 0
CATDS (ABL2): 0
CATDS (ACAD11): 0

COc1cc(Nc2nccc(N3CCC(NC(=O)Nc4cccc(C(C)=O)c4)C3)n2)cc(OC)c1OC (stereo not drawn) [GSK1379753A]
CATDS (ACOX1): 0
CATDS (AAK1): 0
CATDS (ABL1): 0
CATDS (ABL2): 0
CATDS (ACAD11): 0

COc1cc(Nc2nccc(N3CCC(NC(=O)c4cccc(NC(C)=O)c4)C3)n2)cc(OC)c1OC (stereo not drawn) [GSK1379754A]
CATDS (ACOX1): 0
potency estimated from few doses (AAK1; [1]): 410 nM
CATDS (AAK1): 0.1752
CATDS (ABL1): 0
CATDS (ABL2): 0
CATDS (ACAD11): 0

COc1cc(Nc2nccc(N3CCC(NC(=O)C4COc5ccccc5O4)C3)n2)cc(OC)c1OC (stereo not drawn) [GSK1379761A]
CATDS (ACOX1): 0
potency estimated from few doses (AAK1; [1]): > 1000 nM
CATDS (AAK1): 0
CATDS (ABL1): 0
CATDS (ABL2): 0
CATDS (ACAD11): 0

COC(=O)c1cccc(NC(=O)NC2CCN(c3ccnc(Nc4cc(OC)c(OC)c(OC)c4)n3)C2)c1 (stereo not drawn) [GSK1379767A]
CATDS (ACOX1): 0
potency estimated from few doses (AAK1; [1]): > 1000 nM
CATDS (AAK1): 0
CATDS (ABL1): 0
CATDS (ABL2): 0
CATDS (ACAD11): 0

COc1cc(Nc2nccc(N3CCC(NS(=O)(=O)c4ccc(NC(C)=O)cc4)CC3)n2)cc(OC)c1OC [GSK1379825A]
CATDS (ACOX1): 0
CATDS (AAK1): 0
CATDS (ABL1): 0
CATDS (ABL2): 0
CATDS (ACAD11): 0

O=C(NCCNc1ccnc(Nc2ccc(F)cc2)n1)Nc1ccccc1F [GSK1379880A]
CATDS (ACOX1): 0
CATDS (AAK1): 0
CATDS (ABL1): 0
CATDS (ABL2): 0
CATDS (ACAD11): 0

COc1ccc(Nc2nccc(NCCNC(=O)Nc3cc(C)ccc3C)n2)cc1 [GSK1379899A]
CATDS (ACOX1): 0
potency estimated from few doses (AAK1; [1]): > 1000 nM
CATDS (AAK1): 0
CATDS (ABL1): 0
CATDS (ABL2): 0
CATDS (ACAD11): 0

O=C(NCCNc1ccnc(NCc2ccc(F)cc2)n1)c1cc2ccccc2s1 [GSK1379944A]
CATDS (ACOX1): 0
CATDS (AAK1): 0
CATDS (ABL1): 0
CATDS (ABL2): 0
CATDS (ACAD11): 0

CCNCC(Cc1ccccc1)NC(=O)c1cc(Br)c(-c2ccnc3[nH]ccc23)s1 (stereo not drawn) [GSK1383280A]
CATDS (ACOX1): 0
CATDS (AAK1): 0
CATDS (ABL1): 0
CATDS (ABL2): 0
CATDS (ACAD11): 0

CC(C)NCC(Cc1ccccc1)NC(=O)c1cc(Br)c(-c2ccnc3[nH]ccc23)s1 (stereo not drawn) [GSK1383281A]
CATDS (ACOX1): 0
CATDS (AAK1): 0
CATDS (ABL1): 0
CATDS (ABL2): 0
CATDS (ACAD11): 0

COc1ccc(C[C@@H](CN)NC(=O)c2cc(Br)c(-c3ccnc4[nH]ccc34)s2)cc1 [GSK1389063A]
CATDS (ACOX1): 0
CATDS (AAK1): 0
CATDS (ABL1): 0
CATDS (ABL2): 0
CATDS (ACAD11): 0

COc1cc(N2CCN(C(C)C)CC2)ccc1Nc1nc(Nc2ccc(F)cc2C(=O)NC[C@@H](O)CO)c2cc[nH]c2n1 [GSK1392956A]
CATDS (ACOX1): 0
CATDS (AAK1): 0
CATDS (ABL1): 0
CATDS (ABL2): 0
CATDS (ACAD11): 0

Cc1ccc(NC(=O)c2cccc(C#N)c2)cc1-c1ccc(C(=O)Nc2ccncc2)cc1 [GSK1398463A]
CATDS (ACOX1): 0
CATDS (AAK1): 0
CATDS (ABL1): 0
CATDS (ABL2): 0
CATDS (ACAD11): 0

Cc1ccc(NC(=O)c2ccc(Cl)cc2)cc1-c1ccc(C(=O)Nc2ccncc2)cc1 [GSK1398467A]
potency estimated from few doses (ACOX1; sheet "Kinobeads Drugmatrix -nanomolar" (only nanomolar interactions), read-out: Kinobeads Drugmatrix -nanomolar: apparent Kd, ACOX1): 761 nM
CATDS (ACOX1): 0.2266
CATDS (AAK1): 0
CATDS (ABL1): 0
CATDS (ABL2): 0
CATDS (ACAD11): 0

Cc1ccc(NC(=O)Nc2ccccc2)cc1-c1ccc(C(=O)Nc2ccncc2)cc1 [GSK1398471A]
CATDS (ACOX1): 0
CATDS (AAK1): 0
CATDS (ABL1): 0
CATDS (ABL2): 0
CATDS (ACAD11): 0

Cc1ccc(NC(=O)Nc2ccccc2F)cc1-c1ccc(C(=O)Nc2ccncc2)cc1 [GSK1398477_KCGS]
CATDS (ACOX1): 0
CATDS (AAK1): 0.01281
CATDS (ABL1): 0.0136
CATDS (ABL2): 0.02269
CATDS (ACAD11): 0.01477

NC[C@H](Cc1ccc(C(F)(F)F)cc1)NC(=O)c1cc(Br)c(-c2ccnc3[nH]ccc23)s1 [GSK1487252A]
CATDS (ACOX1): 0
CATDS (AAK1): 0
CATDS (ABL1): 0
CATDS (ABL2): 0
CATDS (ACAD11): 0

COc1cc(N2CCN(C(C)C)CC2)ccc1Nc1nc(Nc2cccc3ncccc23)c2cc[nH]c2n1 [GSK1511931A]
CATDS (ACOX1): 0
CATDS (AAK1): 0
CATDS (ABL1): 0
CATDS (ABL2): 0
CATDS (ACAD11): 0

NC[C@H](CC1CCCCC1)NC(=O)c1cc(Br)c(-c2ccnc3[nH]ccc23)s1 [GSK1581427A]
CATDS (ACOX1): 0
CATDS (AAK1): 0
CATDS (ABL1): 0
CATDS (ABL2): 0
CATDS (ACAD11): 0

NC[C@H](CC1CCCCC1)NC(=O)c1ccc(-c2ccnc3[nH]ccc23)s1 [GSK1581428A]
CATDS (ACOX1): 0
potency estimated from few doses (AAK1): 54.5 nM
CATDS (AAK1): 0.07203
CATDS (ABL1): 0
CATDS (ABL2): 0
CATDS (ACAD11): 0

Nc1ncc(-c2ccc3nccc(-c4ccncc4)c3c2)cc1S(=O)(=O)N1CCOCC1 [GSK1627798A]
CATDS (ACOX1): 0
CATDS (AAK1): 0
CATDS (ABL1): 0
CATDS (ABL2): 0
CATDS (ACAD11): 0

Cc1cc(N2CCC(NS(=O)(=O)c3ccc(F)cc3)CC2)nc(Nc2cccc(C#N)c2)n1 [GSK1653537A]
CATDS (ACOX1): 0
CATDS (AAK1): 0
CATDS (ABL1): 0
CATDS (ABL2): 0
CATDS (ACAD11): 0

COc1ccc(S(=O)(=O)NC2CCN(c3cc(C)nc(Nc4cccc(C#N)c4)n3)CC2)cc1 [GSK1653539A]
CATDS (ACOX1): 0
CATDS (AAK1): 0
CATDS (ABL1): 0
CATDS (ABL2): 0
CATDS (ACAD11): 0

Cc1occc1-c1nc(N)c(OC[C@@H](N)Cc2c[nH]c3ccccc23)cc1-c1cc2c(C)n[nH]c2cn1 [GSK1660450B]
CATDS (ACOX1): 0
potency estimated from few doses (AAK1; [1]): > 1000 nM
CATDS (AAK1): 0
CATDS (ABL1): 0
CATDS (ABL2): 0
CATDS (ACAD11): 0

CN(C)S(=O)(=O)c1cc(-c2ccc3nccc(-c4cccc(S(N)(=O)=O)c4)c3c2)cnc1N [GSK1669921A]
CATDS (ACOX1): 0
CATDS (AAK1): 0
CATDS (ABL1): 0
CATDS (ABL2): 0
CATDS (ACAD11): 0

Nc1ncc(-c2ccc3nccc(-c4ccncc4)c3c2)cc1S(=O)(=O)N1CCCCC1 [GSK1693850A]
CATDS (ACOX1): 0
CATDS (AAK1): 0
CATDS (ABL1): 0
CATDS (ABL2): 0
CATDS (ACAD11): 0

CCCN1CCC(Oc2cc(Nc3nc(Nc4cccc(F)c4C(N)=O)c4cc[nH]c4n3)c(OC)cc2Cl)CC1 [GSK1713088A]
CATDS (ACOX1): 0
CATDS (AAK1): 0
CATDS (ABL1): 0
CATDS (ABL2): 0
CATDS (ACAD11): 0
